Reference: PMC11230136 (Cell reports, 2024)

Assays:
[1] = tested on: pilocarpine-induced SE mice; experiment: Pilocarpine-induced status epilepticus
[2] = biological target: activated c-Abl immunoprecipitated from neurons (Rattus norvegicus, UniProt A0ABK0LKB8); experiment: In vitro phosphorylation kinase assay; assay type: biochemical; conditions: pre-incubation with 5 μM inhibitor (controls)
hippocampal neurons = experiment: Apoptotic nuclei; assay type: cell-based, rat; conditions: 1-h 100 μM NMDA, co-incubation with 5 μM inhibitor
[3] = In vivo toxicity / tolerability observation; parameters: species or system mouse; conditions: diet 20, 67 or 200 ppm for 14 days
[4] = i.p. pre-treatment 12.5 mg/kg for 3 days, 60 min post pilocarpine
[5] = diet for 15 days (neurotinib 67 ppm, nilotinib 200 ppm), 60 min post pilocarpine

Sequence of activated c-Abl immunoprecipitated from neurons (A0ABK0LKB8 1-1124): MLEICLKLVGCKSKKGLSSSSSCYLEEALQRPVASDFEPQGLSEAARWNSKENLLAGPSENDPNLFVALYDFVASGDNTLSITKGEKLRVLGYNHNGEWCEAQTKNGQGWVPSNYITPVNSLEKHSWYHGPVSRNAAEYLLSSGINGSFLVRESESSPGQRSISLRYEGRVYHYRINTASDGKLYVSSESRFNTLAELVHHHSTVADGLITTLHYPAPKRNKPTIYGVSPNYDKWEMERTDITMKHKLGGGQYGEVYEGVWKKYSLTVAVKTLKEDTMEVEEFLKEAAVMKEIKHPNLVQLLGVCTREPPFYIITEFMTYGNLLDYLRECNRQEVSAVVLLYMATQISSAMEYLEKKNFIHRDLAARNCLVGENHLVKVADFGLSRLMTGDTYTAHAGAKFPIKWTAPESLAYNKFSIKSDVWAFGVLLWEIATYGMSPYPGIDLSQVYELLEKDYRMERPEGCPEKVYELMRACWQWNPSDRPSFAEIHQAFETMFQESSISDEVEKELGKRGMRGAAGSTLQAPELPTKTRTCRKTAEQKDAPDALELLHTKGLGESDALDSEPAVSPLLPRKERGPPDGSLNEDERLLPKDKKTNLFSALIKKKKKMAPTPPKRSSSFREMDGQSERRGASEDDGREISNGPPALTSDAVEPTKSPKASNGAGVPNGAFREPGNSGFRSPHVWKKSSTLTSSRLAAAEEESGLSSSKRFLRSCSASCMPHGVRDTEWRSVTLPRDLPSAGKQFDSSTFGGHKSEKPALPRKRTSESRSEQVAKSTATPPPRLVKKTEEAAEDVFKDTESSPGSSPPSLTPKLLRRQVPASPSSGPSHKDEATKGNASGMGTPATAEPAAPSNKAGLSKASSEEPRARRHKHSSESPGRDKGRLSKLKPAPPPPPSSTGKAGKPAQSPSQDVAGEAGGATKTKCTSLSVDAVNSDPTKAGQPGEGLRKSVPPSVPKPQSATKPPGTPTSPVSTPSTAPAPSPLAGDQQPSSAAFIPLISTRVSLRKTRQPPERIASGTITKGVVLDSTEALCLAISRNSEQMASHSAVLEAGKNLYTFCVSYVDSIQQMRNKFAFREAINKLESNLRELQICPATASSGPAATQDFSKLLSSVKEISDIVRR

Row | Structure (SMILES) | Mice with SE [1, 4] | Mice with single seizures but no SE [1, 4] | Total mortality [1, 4] | CRKII-GST phosphorylation [2] | apoptotic nuclei (Hoechst) (hippocampal neurons) | Mice with SE [1, 5] | Total mortality [1, 5] | Latency SE ([1]; diet for 15 days (neurotinib 67 ppm, nilotinib 200 ppm), mean ± SEM) | acute toxicity or changes in behavior [3]
1 | Cc1ccc(NC(=O)c2ccc(CN3CCN(C)CC3)cc2)cc1Nc1nccc(-c2cccnc2)n1 [imatinib] | 68% | 29% | 36% | inhibits CRKII-GST phosphorylation | apoptosis reduction | – | – | – | –
2 | Cc1cn(-c2cc(NC(=O)c3ccc(C)c(Nc4nccc(-c5cccnc5)n4)c3)cc(C(F)(F)F)c2)cn1 [nilotinib] | – | – | – | – | – | 70% | none | 32.6 ± 6.1 min | No signs of acute toxicity or changes in behavior
